One assay deals with T1, Interstitial collagenase (Homo sapiens, UniProt P03956).
T1 sequence (P03956 whole entry): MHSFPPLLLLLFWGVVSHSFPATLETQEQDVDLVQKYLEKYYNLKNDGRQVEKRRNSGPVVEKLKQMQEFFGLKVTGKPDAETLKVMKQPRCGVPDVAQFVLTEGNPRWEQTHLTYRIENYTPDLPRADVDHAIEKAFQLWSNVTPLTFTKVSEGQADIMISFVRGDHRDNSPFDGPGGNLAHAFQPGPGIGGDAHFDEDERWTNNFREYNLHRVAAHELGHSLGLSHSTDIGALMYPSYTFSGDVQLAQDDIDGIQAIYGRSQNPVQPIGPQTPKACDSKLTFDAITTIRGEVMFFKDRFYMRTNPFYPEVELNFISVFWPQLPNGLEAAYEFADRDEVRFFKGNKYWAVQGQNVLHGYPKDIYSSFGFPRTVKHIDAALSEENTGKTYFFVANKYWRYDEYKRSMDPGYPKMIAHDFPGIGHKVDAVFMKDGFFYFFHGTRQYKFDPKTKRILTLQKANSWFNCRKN
The experiment in a line: Inhibition of MMP-1 (Matrix metalloprotease-1).

Assay [1] deals with Matrix metalloproteinase-9 (Homo sapiens, UniProt P14780). The experiment in a line: Inhibition of MMP-9 (Matrix metalloprotease-9).
Sequence of Matrix metalloproteinase-9 (P14780 whole entry): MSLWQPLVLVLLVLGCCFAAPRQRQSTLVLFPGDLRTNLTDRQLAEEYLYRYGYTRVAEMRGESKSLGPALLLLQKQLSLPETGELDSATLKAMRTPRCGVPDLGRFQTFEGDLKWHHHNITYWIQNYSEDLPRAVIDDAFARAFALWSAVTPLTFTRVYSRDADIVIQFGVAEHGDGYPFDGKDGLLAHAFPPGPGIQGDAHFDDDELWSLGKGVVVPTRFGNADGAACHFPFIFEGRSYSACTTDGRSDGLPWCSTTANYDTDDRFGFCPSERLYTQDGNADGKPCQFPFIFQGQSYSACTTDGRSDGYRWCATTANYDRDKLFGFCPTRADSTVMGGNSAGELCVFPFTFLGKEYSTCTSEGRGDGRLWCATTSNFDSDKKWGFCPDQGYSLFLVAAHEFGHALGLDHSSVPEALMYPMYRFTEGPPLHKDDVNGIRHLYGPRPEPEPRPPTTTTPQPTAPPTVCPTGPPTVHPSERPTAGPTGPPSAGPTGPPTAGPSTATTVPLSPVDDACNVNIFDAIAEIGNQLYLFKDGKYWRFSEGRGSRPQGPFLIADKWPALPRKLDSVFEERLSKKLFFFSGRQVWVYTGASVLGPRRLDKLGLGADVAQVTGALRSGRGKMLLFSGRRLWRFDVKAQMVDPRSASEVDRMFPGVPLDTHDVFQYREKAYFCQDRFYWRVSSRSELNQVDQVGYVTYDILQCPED
For another assay, the target named is Stromelysin-1 (Homo sapiens, UniProt P08254). The experiment in a line: Inhibition of MMP-3 (Matrix metalloprotease-3).
Sequence of Stromelysin-1 (P08254 whole entry): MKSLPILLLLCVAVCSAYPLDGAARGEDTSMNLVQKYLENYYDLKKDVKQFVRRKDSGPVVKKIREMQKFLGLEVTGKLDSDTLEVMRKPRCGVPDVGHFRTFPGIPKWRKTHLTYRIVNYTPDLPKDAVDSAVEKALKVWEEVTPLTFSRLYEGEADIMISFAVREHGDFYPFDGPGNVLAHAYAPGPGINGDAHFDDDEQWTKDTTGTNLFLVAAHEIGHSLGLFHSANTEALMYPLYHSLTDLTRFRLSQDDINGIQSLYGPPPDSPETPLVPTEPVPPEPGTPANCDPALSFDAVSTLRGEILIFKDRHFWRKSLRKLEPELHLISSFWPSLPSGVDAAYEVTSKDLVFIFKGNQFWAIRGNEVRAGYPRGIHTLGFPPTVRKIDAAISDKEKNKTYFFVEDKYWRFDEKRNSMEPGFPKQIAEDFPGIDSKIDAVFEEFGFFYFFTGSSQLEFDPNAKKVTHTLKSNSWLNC
The species entered for the next assay is Homo sapiens. The experiment in a line: In vitro inhibition for TNF-alpha production from LPS-stimulated human whole blood. Format: functional.

Each structure is given as a SMILES string.

In the case of `CNC(=O)[C@@H]1Cc2ccc(cc2)OCCC[C@H](C(=O)NO)[C@@H](CC(C)C)C(=O)N1`, the Ki worked out at 1.2 nM on Interstitial collagenase, 1.8 nM in assay [1] and 32.7 nM on Stromelysin-1. Moreover, the IC50 in the assay filed under Homo sapiens turned out to be 1200 nM.

For the compound `CNC(=O)[C@@H](Cc1ccc(OC)cc1)NC(=O)[C@H](CC(C)C)[C@H](C)C(=O)NO`, the Ki is 0.87 nM at Interstitial collagenase, 0.13 nM in assay [1] and 1.93 nM at Stromelysin-1. In addition, the IC50 in the assay filed under Homo sapiens worked out at 1800 nM.

As to `CNC(=O)[C@@H]1CCCCNC(=O)CO[C@H](C(=O)NO)[C@@H](CC(C)C)C(=O)N1`, the Ki is 2.8 nM on Interstitial collagenase, 2.6 nM in assay [1] and 24.1 nM on Stromelysin-1. For the same compound, the IC50 in the assay filed under Homo sapiens was determined as 6500 nM.

As usually defined, the Ki is the dissociation constant of the complex between target and ligand, obtained from inhibition or displacement. Broadly, the IC50 is the concentration that gives 50% inhibition. A high value points to a need for much substance.

Values taken from ChEMBL document CHEMBL1131224, “Design and synthesis of cyclic inhibitors of matrix metalloproteinases and TNF-alpha production” (J Med Chem, 1998).
